Where “and” joins values, the source holds several entries; their conditions need not be identical. Equal entries are not always repeated. Inconclusive results and toxic doses are left out. Rule for the calls: active = survival T/C of 150% or more; inactive = T/C below 125% in these data.
System: CD2F1 mice, L1210 leukemia ip, survival T/C
Assay: NCI In Vivo Anticancer Drug Screen. Data for tumor model L1210 Leukemia (intraperitoneal) in CD2F1 (CDF1) mice
Conditions: higher = longer survival
Procedure, shortened: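 Each value reflects a quotient of treated over vehicle control outcomes in mice with a transplanted tumor.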

[1] = endpoint: mean survival time, dose: 100.0 mg/kg/injection, schedule: Q01DX001 (ip), vehicle: saline with Tween-80
[2] = endpoint: mean survival time, dose: 200.0 mg/kg/injection, schedule: Q01DX001 (ip), vehicle: saline with Tween-80
[3] = endpoint: mean survival time, dose: 400.0 mg/kg/injection, schedule: Q01DX001 (ip), vehicle: saline with Tween-80

Measured: T/C

COc1cc(N=Nc2ccccc2C(=O)O)ccc1N(CCCl)CCCl
inactive: endpoint: mean survival time, dose: 6.25 mg/kg/injection, schedule: Q01DX009 (ip), vehicle: Klucel (hydroxypropylcellulose) (HPC) 99 % of control | endpoint: mean survival time, dose: 12.5 mg/kg/injection, schedule: Q01DX009 (ip), vehicle: Klucel (hydroxypropylcellulose) (HPC) 108 % of control | endpoint: mean survival time, dose: 25.0 mg/kg/injection, schedule: Q01DX009 (ip), vehicle: Klucel (hydroxypropylcellulose) (HPC) 123 % of control

Cc1cn(C2OC(CO)C(O)C2O)c([Se])nc1=O (stereo unspecified)
inactive: endpoint: mean survival time, dose: 50.0 mg/kg/injection, schedule: Q01DX005 (ip), vehicle: water 97 % of control | endpoint: mean survival time, dose: 100.0 mg/kg/injection, schedule: Q01DX005 (ip), vehicle: water 90 % of control | endpoint: mean survival time, dose: 200.0 mg/kg/injection, schedule: Q01DX005 (ip), vehicle: water 90 % of control

CC(O)C1OC(n2cnc3c(=O)[nH]c(N)nc32)C(O)C1O (stereo unspecified)
inactive: endpoint: mean survival time, dose: 12.5 mg/kg/injection, schedule: Q01DX005 (ip), vehicle: distilled water + Tween-80 101 % of control | endpoint: mean survival time, dose: 25.0 mg/kg/injection, schedule: Q01DX005 (ip), vehicle: distilled water + Tween-80 100 % of control | endpoint: mean survival time, dose: 50.0 mg/kg/injection, schedule: Q01DX005 (ip), vehicle: distilled water + Tween-80 101 % of control | endpoint: mean survival time, dose: 100.0 mg/kg/injection, schedule: Q01DX005 (ip), vehicle: distilled water + Tween-80 97 % of control | endpoint: mean survival time, dose: 200.0 mg/kg/injection, schedule: Q01DX005 (ip), vehicle: distilled water + Tween-80 97 % of control | endpoint: median survival time, dose: 12.5 mg/kg/injection, schedule: Q01DX005 (ip), vehicle: distilled water + Tween-80 112 % of control | endpoint: median survival time, dose: 20.0 mg/kg/injection, schedule: Q01DX005 (ip), vehicle: distilled water + Tween-80 108 % of control | endpoint: median survival time, dose: 50.0 mg/kg/injection, schedule: Q01DX005 (ip), vehicle: distilled water + Tween-80 112 % of control | endpoint: median survival time, dose: 100.0 mg/kg/injection, schedule: Q01DX005 (ip), vehicle: distilled water + Tween-80 104 % of control | endpoint: median survival time, dose: 200.0 mg/kg/injection, schedule: Q01DX005 (ip), vehicle: distilled water + Tween-80 96 % of control

O=c1ccn(C2OC(CO)C(O)C2O)c(=O)[nH]1 (stereo unspecified)
inactive: endpoint: mean survival time, dose: 12.5 mg/kg/injection, schedule: Q01DX005 (ip), vehicle: Klucel (hydroxypropylcellulose) (HPC) 103 % of control | endpoint: mean survival time, dose: 25.0 mg/kg/injection, schedule: Q01DX005 (ip), vehicle: Klucel (hydroxypropylcellulose) (HPC) 101 % of control | endpoint: mean survival time, dose: 50.0 mg/kg/injection, schedule: Q01DX005 (ip), vehicle: Klucel (hydroxypropylcellulose) (HPC) 101 % of control | endpoint: mean survival time, dose: 100.0 mg/kg/injection, schedule: Q01DX005 (ip), vehicle: Klucel (hydroxypropylcellulose) (HPC) 110 % of control | endpoint: mean survival time, dose: 200.0 mg/kg/injection, schedule: Q01DX005 (ip), vehicle: Klucel (hydroxypropylcellulose) (HPC) 105 % of control

CC(=O)NNC(=O)c1ccccc1
inactive: endpoint: mean survival time, dose: 50.0 mg/kg/injection, schedule: Q01DX009 (ip), vehicle: other 95 % of control and 105 % of control | endpoint: mean survival time, dose: 100.0 mg/kg/injection, schedule: Q01DX009 (ip), vehicle: other 97 % of control and 108 % of control | endpoint: mean survival time, dose: 200.0 mg/kg/injection, schedule: Q01DX009 (ip), vehicle: other 93 % of control and 97 % of control | endpoint: mean survival time, dose: 300.0 mg/kg/injection, schedule: Q01DX009 (ip), vehicle: other 90 % of control

CC(=O)[CH-]C(=O)C(=O)[CH-]C(C)=O.[Cu+2]
inactive: endpoint: mean survival time, dose: 20.0 mg/kg/injection, schedule: Q01DX001 (ip), vehicle: saline with Tween-80 96 % of control | endpoint: mean survival time, dose: 40.0 mg/kg/injection, schedule: Q01DX001 (ip), vehicle: saline with Tween-80 96 % of control | endpoint: mean survival time, dose: 80.0 mg/kg/injection, schedule: Q01DX001 (ip), vehicle: saline with Tween-80 94 % of control

Cc1c2ccccc2c(CN(C)CC(=O)NCC(=O)NCC(=O)O)c2ccccc12
inactive: [1] 103 % of control | [2] 92 % of control | [3] 92 % of control

O=C1OCC/C1=C1/CCOC1
inactive: endpoint: mean survival time, dose: 25.0 mg/kg/injection, schedule: Q01DX009 (ip), vehicle: saline with Tween-80 101 % of control | endpoint: mean survival time, dose: 50.0 mg/kg/injection, schedule: Q01DX009 (ip), vehicle: saline with Tween-80 101 % of control

CCCCCC(C)(C#N)CCCCC
inactive: endpoint: mean survival time, dose: 100.0 mg/kg/injection, schedule: Q01DX009 (ip), vehicle: saline with Tween-80 105 % of control | endpoint: mean survival time, dose: 200.0 mg/kg/injection, schedule: Q01DX009 (ip), vehicle: saline with Tween-80 103 % of control

O=[N+]([O-])c1ccc(N=Cc2ccc3c(c2)OCO3)c(Br)c1
inactive: endpoint: mean survival time, dose: 100.0 mg/kg/injection, schedule: Q01DX009 (ip), vehicle: Klucel (hydroxypropylcellulose) (HPC) 108 % of control | endpoint: mean survival time, dose: 100.0 mg/kg/injection, schedule: Q04DX003 (ip), vehicle: other 108 % of control | endpoint: mean survival time, dose: 200.0 mg/kg/injection, schedule: Q01DX009 (ip), vehicle: Klucel (hydroxypropylcellulose) (HPC) 109 % of control | endpoint: mean survival time, dose: 200.0 mg/kg/injection, schedule: Q04DX003 (ip), vehicle: other 103 % of control | endpoint: mean survival time, dose: 400.0 mg/kg/injection, schedule: Q01DX009 (ip), vehicle: Klucel (hydroxypropylcellulose) (HPC) 109 % of control | endpoint: mean survival time, dose: 400.0 mg/kg/injection, schedule: Q04DX003 (ip), vehicle: other 103 % of control

O=C(O)CCCCCCCC(Br)C(Br)CCCCCCCC(=O)O (stereo unspecified)
inactive: endpoint: mean survival time, dose: 25.0 mg/kg/injection, schedule: Q04DX002 (ip), vehicle: saline with Tween-80 95 % of control | endpoint: mean survival time, dose: 50.0 mg/kg/injection, schedule: Q04DX002 (ip), vehicle: saline with Tween-80 91 % of control | endpoint: mean survival time, dose: 100.0 mg/kg/injection, schedule: Q04DX002 (ip), vehicle: saline with Tween-80 91 % of control | endpoint: mean survival time, dose: 200.0 mg/kg/injection, schedule: Q04DX002 (ip), vehicle: saline with Tween-80 95 % of control

CCOc1ccc(-n2c(O)c(N=Nc3ccccc3)c(=O)n(-c3ccccc3)c2=S)cc1
inactive: [1] 92 % of control | [2] 102 % of control

COCCOCCOCCOCCOCCOCCOCCOC(=O)Nc1ccc(C)c(NC(=O)OCCOCCOCCOCCOCCOCCOCCOC)c1
inactive: endpoint: mean survival time, dose: 100.0 mg/kg/injection, schedule: Q01DX009 (ip), vehicle: saline sonified 96 % of control | endpoint: mean survival time, dose: 100.0 mg/kg/injection, schedule: Q04DX003 (ip), vehicle: saline 96 % of control | endpoint: mean survival time, dose: 200.0 mg/kg/injection, schedule: Q01DX009 (ip), vehicle: saline sonified 96 % of control | endpoint: mean survival time, dose: 200.0 mg/kg/injection, schedule: Q04DX003 (ip), vehicle: saline 100 % of control | endpoint: mean survival time, dose: 400.0 mg/kg/injection, schedule: Q01DX009 (ip), vehicle: saline sonified 93 % of control | endpoint: mean survival time, dose: 400.0 mg/kg/injection, schedule: Q04DX003 (ip), vehicle: saline 100 % of control

CC(=O)Nc1cc(C)c(C)cc1[N+](=O)[O-]
inactive: [1] 98 % of control | [2] 101 % of control | [3] 98 % of control

CCNc1ncc2ccccc2c1-c1ccc(N2CCN(CCCl)CC2)cc1
inactive: endpoint: mean survival time, dose: 25.0 mg/kg/injection, schedule: Q04DX003 (ip), vehicle: saline + alcohol 111 % of control | endpoint: mean survival time, dose: 50.0 mg/kg/injection, schedule: Q04DX003 (ip), vehicle: saline + alcohol 102 % of control | endpoint: mean survival time, dose: 100.0 mg/kg/injection, schedule: Q04DX003 (ip), vehicle: saline + alcohol 102 % of control | endpoint: mean survival time, dose: 200.0 mg/kg/injection, schedule: Q04DX003 (ip), vehicle: saline + alcohol 111 % of control

CCOC1([N+](=O)[O-])c2ccccc2-c2nc3ccccc3cc21 (stereo unspecified)
inactive: endpoint: mean survival time, dose: 200.0 mg/kg/injection, schedule: Q04DX003 (ip), vehicle: Klucel (hydroxypropylcellulose) (HPC) 97 % of control

COc1ccc2c(ccc3oc([N+](=O)[O-])cc32)c1
inactive: endpoint: median survival time, dose: 6.25 mg/kg/injection, schedule: Q01DX009 (ip), vehicle: saline with Tween-80 105 % of control | endpoint: median survival time, dose: 12.5 mg/kg/injection, schedule: Q01DX009 (ip), vehicle: saline with Tween-80 105 % of control | endpoint: median survival time, dose: 25.0 mg/kg/injection, schedule: Q01DX009 (ip), vehicle: saline with Tween-80 105 % of control | endpoint: median survival time, dose: 50.0 mg/kg/injection, schedule: Q01DX009 (ip), vehicle: saline with Tween-80 105 % of control | endpoint: median survival time, dose: 100.0 mg/kg/injection, schedule: Q01DX009 (ip), vehicle: saline with Tween-80 107 % of control | endpoint: median survival time, dose: 200.0 mg/kg/injection, schedule: Q01DX009 (ip), vehicle: saline with Tween-80 92 % of control

Cc1c(C)c(Cl)c(C)c(C)c1Cl
inactive: endpoint: mean survival time, dose: 5.0 mg/kg/injection, schedule: Q01DX009 (ip), vehicle: saline with Tween-80 98 % of control | endpoint: mean survival time, dose: 5.0 mg/kg/injection, schedule: Q04DX003 (ip), vehicle: saline with Tween-80 100 % of control | endpoint: mean survival time, dose: 10.0 mg/kg/injection, schedule: Q01DX009 (ip), vehicle: saline with Tween-80 104 % of control | endpoint: mean survival time, dose: 10.0 mg/kg/injection, schedule: Q04DX003 (ip), vehicle: saline with Tween-80 100 % of control | endpoint: mean survival time, dose: 20.0 mg/kg/injection, schedule: Q01DX009 (ip), vehicle: saline with Tween-80 98 % of control | endpoint: mean survival time, dose: 20.0 mg/kg/injection, schedule: Q04DX003 (ip), vehicle: saline with Tween-80 105 % of control

CC/C=C(\CC(=O)OCC)C(=O)OCC
inactive: endpoint: mean survival time, dose: 100.0 mg/kg/injection, schedule: Q04DX003 (ip), vehicle: saline with Tween-80 102 % of control | endpoint: mean survival time, dose: 200.0 mg/kg/injection, schedule: Q04DX003 (ip), vehicle: saline with Tween-80 106 % of control | endpoint: mean survival time, dose: 400.0 mg/kg/injection, schedule: Q04DX003 (ip), vehicle: saline with Tween-80 101 % of control

— PubChem BioAssay AID256 (DTP/NCI, 2004)
